Test results reported in US20250034592A1, “NEUROPEPTIDE-[…] AND METHODS FOR THE TREATMENT OF EPILEPSY” (CHARITE - UNIVERSIT[…], priority 2016, published 2025).

System: pDyn deficient mice
Test: Seizure threshold, pentylenetetrazole (PTZ) tail-vein infusion
Format: in vivo
Conditions: FIG. 6; for potency in seizure threshold test: compared with Dyn B
Excerpt: Pentylenetetrazole is an inhibitor of GABAA receptors and induces seizures upon injection into the tail vein. pDyn deficient animals display a reduce seizure threshold compared to wild-type mice. […] From this, we expect an early onset of the effect of gene therapy and a lower number of vectors needed per patient.
The seizure threshold is a measure for the susceptibility to develop seizures. The resistance against seizure-inducing agents or stimuli is used as readout in animals. Infusion of pentylenetetrazole, a GABAA receptor antagonist, into the tail vein of rodents is an accepted method to measure the seizure threshold. […] This can be rescued by kappa opioid receptors agonists.
Seizure threshold was determined by pentylenetetrazole (PTZ) (see FIG. 6) tail-vein infusion on freely moving pDyn deficient mice at a rate of 100 μl/min ([…] PTZ in saline, pH 7.4). […] The seizure threshold dose was calculated from the infused volume in relation to body weight. Dyn B or modified variants thereof were dissolved in DMSO and diluted to the final dosages in saline containing final concentrations of 10% DMSO, 3% Tween 80. 3 μl of peptide-solution were applied 30 min. before tail-vein infusion under mild sevoflurane anaesthesia into the cisterna magna. The following peptides were tested: Dyn B=SEQ ID No. 8, Dyn B G3A=SEQ ID 10 No. 11 wherein Z at position 3 is alanine, Dyn B G3A+Q8A=SEQ ID No. 11 wherein Z at position 3 is alanine and Z at position 8 of SEQ ID No. 11 is alanine, Dyn B Q8A=SEQ ID No. 11 wherein Z at position 8 is alanine.

| Substance | potency in seizure threshold test | seizure threshold (peptide applied into cisterna magna 30 min before) |
| --- | --- | --- |
| Dyn B G3A: SEQ ID No. 11 (YGZFLRRZFKVVT) wherein Z at position 3 is alanine (YGAFLRRXFKVVT; VARIANT 3 Any amino acid; VARIANT 8 Any amino acid; listed as Homo sapiens) | higher potency | – |
| Dyn B G3A+Q8A: SEQ ID No. 11 wherein Z at position 3 is alanine and Z at position 8 is alanine (YGAFLRRAFKVVT; VARIANT 3 Any amino acid; VARIANT 8 Any amino acid; listed as Homo sapiens) | higher potency | – |
| Dynorphin B [Dyn B, reference compound] | – | rescued |
